One experiment concerns control (Neo) cells. Nature of the experiment: Oxygen consumption rate (OCR) assay, control (Neo) HEK293 cells. Format: cell-based. The note with it: Homo sapiens; control (Neo) HEK293 cells; MitoXpress Xtra, 2 hours; read-out: Oxygen Consumption Rate (OCR) IC50, Neo. The text has this:
Diabetologia 2011, 54 (12): 3101-3110, each incorporated by reference with regard to such testing. The compounds of the present invention are similarly tested in an oxygen consumption rate (OCR) assay to evaluate the functional activity of test compounds in cells.
(§1) In brief, the assay uses HEK293 cells stably transfected with the human OCT1, OCT2, OCT3, PMAT, or MATE1 transporters to determine a compound's relative transporter selectivity and its effect on the rate of oxygen consumption relative to control (Neo) cells. The MitoXpress Xtra oxygen-sensitive fluorophore is used to monitor oxygen consumption rates in the presence and absence of compound treatments. The analogs were tested at eight (8) different concentrations in triplicate to determine a relative IC50 value.
(§2) A summary description of the protocol is as follows:
(§3) HEK293 cells transformed with human organic cation transporters were plated in collagen coated, 96-well black-walled microclear plates (Greiner-Bio 1, #655956) at 60,000 cells per well in growth medium (DMEM (LG), 10% FBS, 400 μg/ml G418). Cells were incubated overnight to allow attachment. The outer columns (1 and 12) are not seeded with cells, as controls. The next day, plating medium was removed and replaced with 150 μL of assay medium (DMEM/F12 (PRF), 5% FBS, antibiotics) containing compound dilutions. A 3-fold serial dilution was prepared in the assay medium and transferred to the empty wells. The outer columns and column 11 received 150 μL of assay medium only. 10 μL of MitoXpress Xtra reagent was added to each test well, and 100 μL of pre-warmed mineral oil was overlayed in each well to create a seal. Dual read time-resolved fluorescence (BMG FluoStar Galaxy reader) was measured over 2 hours with measurements taken every 2 minutes. Excitation is 340 nm, Emission is 650 nm. For lifetime analysis, two measurements per well were taken: 1) delay of 30 μs, with a window of 30 μs; and 2) delay of 70 μs with a window of 30 μs. Background TRF values from A1-D1 were subtracted from all readings. A ratiometric analysis was performed to determine changes in the Lifetime fluorescence signal:Lifetime (μs) [T]=(D2−D1)/ln(W1/W2), where D is delay; W is fluorescence window value at each time point. Lifetime slopes were calculated using each Lifetime measurement over time. IC50 values were determined by plotting lifetime slope values vs. compound concentration.

A further experiment deals with T1, human MATE1 (Homo sapiens, UniProt Q96FL8).
T1 sequence (Q96FL8 1-570): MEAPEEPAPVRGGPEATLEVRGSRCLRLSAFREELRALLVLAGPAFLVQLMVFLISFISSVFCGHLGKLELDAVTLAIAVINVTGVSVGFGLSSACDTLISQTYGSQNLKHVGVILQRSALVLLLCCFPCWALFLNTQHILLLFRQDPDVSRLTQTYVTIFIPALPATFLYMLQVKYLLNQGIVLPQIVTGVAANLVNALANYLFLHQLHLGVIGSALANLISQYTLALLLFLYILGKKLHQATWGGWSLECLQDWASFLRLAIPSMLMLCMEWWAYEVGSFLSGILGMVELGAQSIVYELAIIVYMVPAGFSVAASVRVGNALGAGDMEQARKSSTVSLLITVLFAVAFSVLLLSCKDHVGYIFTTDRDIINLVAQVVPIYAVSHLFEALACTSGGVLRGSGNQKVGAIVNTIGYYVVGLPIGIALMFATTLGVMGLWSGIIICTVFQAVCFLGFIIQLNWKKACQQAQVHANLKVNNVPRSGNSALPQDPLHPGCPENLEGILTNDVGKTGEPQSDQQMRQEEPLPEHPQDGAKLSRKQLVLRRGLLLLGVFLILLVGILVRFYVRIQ
Nature of the experiment: Oxygen consumption rate (OCR) assay, HEK293 cells transfected with MATE1. The conditions noted are these: for inhibition at 1000 µM: HEK293, read-out: Oxygen Consumption Rate (OCR), MATE 1, % Inhibition at 1000 μM test concentration.
Description: The compounds of the present invention are similarly tested in an oxygen consumption rate (OCR) assay to evaluate the functional activity of test compounds in cells.
as §1, §2
as §3, with “Cells” for “HEK293 cells transformed with human organic cation transporters were plated in collagen coated, 96-well black-walled microclear plates (Greiner-Bio 1, #655956) at 60,000 cells per well in growth medium (DMEM (LG), 10% FBS, 400 μg/ml G418). Cells”

The structures appear in SMILES notation. Counter-ions that a name gives are not always drawn.

As for `N=C(N)NC(=N)NCCc1c[nH]c2c(F)c(Cl)ccc12` [Ex 51, 1-[2-(6-chloro-7-fluoro-1H-indol-3-yl)ethyl]imidodicarbonimide diamide, trifluoroacetic acid salt], the IC50 turned out to be 542 µM in the experiment with control (Neo) cells and 597 µM on human MATE1. As to `N=C(N)NC(=N)NCCc1cn(CCO)c2ccccc12` [Ex 13, 1-[2-(1-(2-hydroxyethyl)-1H-indol-3-yl)ethyl]imidodicarbonimide diamide trifluoroacetic acid salt], the IC50 with control (Neo) cells came to 2520 µM. Besides, the inhibition at 1000 µM at human MATE1 is 22%.

As to `Cc1[nH]c2ncccc2c1CCNC(=N)NC(=N)N` [Ex 44, 1-(2-(2-methyl-1H-pyrrolo[2,3-b]pyridin-3-yl)ethyl)imidodicarbonimide diamide, trifluoroacetic acid salt], the values for the IC50 in the experiment with control (Neo) cells and against human MATE1 were 1660 µM and 474 µM, respectively. As for `N=C(N)NC(=N)NCCc1c[nH]c2ccc(OCCO)cc12` [Ex 15, 1-(2-(5-(2-hydroxyethoxy)-1H-indol-3-yl)ethyl)imidodicarbonimide diamide trifluoroacetic acid salt], the IC50 with control (Neo) cells is more than 10000 µM. For the same compound, the inhibition at 1000 µM at human MATE1 is -17%.

Regarding `N=C(N)NC(=N)NCCc1c[nH]c2c(Cl)cc(F)cc12` [Ex 38, 1-[2-(7-chloro-5-fluoro-1H-indol-3-yl)ethyl]imidodicarbonimide diamide, trifluoroacetic acid salt], the IC50 in the experiment on control (Neo) cells is 8760 µM; on human MATE1, 2050 µM. The like results for `N=C(N)NC(=N)NCCc1c[nH]c2c(F)cc(Cl)cc12` [Ex 64, 1-[2-(5-chloro-7-fluoro-1H-indol-3-yl)ethyl]imidodicarbonimide diamide, trifluoroacetic acid salt] were, in that order, 282 µM and 370 µM.

`N=C(N)NC(=N)NCCc1c[nH]c2ncc(Cl)cc12` [Ex 40, 1-(2-(5-chloro-1H-pyrrolo[2,3-b]pyridin-3-yl)ethyl)imidodicarbonimide diamide, trifluoroacetic acid salt]: the IC50 with control (Neo) cells is more than 1000 µM; against human MATE1, 1470 µM.

Regarding `N=C(N)NC(=N)NCCc1c[nH]c2cc(F)c(F)cc12` [Ex 28, 1-[2-(5,6-difluoro-1H-indol-3-yl)ethyl]imidodicarbonimide diamide, trifluoroacetic acid salt], the IC50 with control (Neo) cells was found to be 604 µM. `Cc1cc2c(CCNC(=N)NC(=N)N)c[nH]c2cc1F` [Ex 37, 1-[2-(6-fluoro-5-methyl-1H-indol-3-yl)ethyl]imidodicarbonimide diamide, trifluoroacetic acid salt]: the IC50 amounted to 326 µM in the experiment on control (Neo) cells and 70 µM against human MATE1. For `CC(CNC(=N)NC(=N)N)c1c[nH]c2cc(F)ccc12` (centres unmarked) [Ex 62, 1-[2-(6-fluoro-1H-indol-3-yl)propyl]imidodicarbonimide diamide, trifluoroacetic acid salt], the IC50 with control (Neo) cells and against human MATE1 was 3430 µM in each case. Take `N=C(N)NC(=N)NCCc1c[nH]c2ccc(C(F)(F)F)cc12` [Ex 25, 1-[2-(5-trifluoromethyl-1H-indol-3-yl)ethyl]imidodicarbonimide diamide, trifluoroacetic acid salt]: the IC50 in the experiment with control (Neo) cells came out at 51 µM. At human MATE1, the inhibition at 1000 µM came out at 44%. Regarding `N=C(N)NC(=N)NCCc1c[nH]c2ccc(F)c(Cl)c12` [Ex 47, 1-[2-(4-chloro-5-fluoro-1H-indol-3-yl)ethyl]imidodicarbonimide diamide, trifluoroacetic acid salt], the IC50 in the experiment on control (Neo) cells worked out at 101 µM; at human MATE1 it was 22 µM. `N=C(N)NC(=N)NCCc1c[nH]c2nccc(Cl)c12` [Ex 46, 1-(2-(4-chloro-1H-pyrrolo[2,3-b]pyridin-3-yl)ethyl)imidodicarbonimide diamide, trifluoroacetic acid salt]: the figures for the IC50 in the experiment on control (Neo) cells and against human MATE1 were 2640 µM and 335 µM, respectively.

As to `CN(C)C(=N)NC(=N)NCCc1c[nH]c2ncccc12` [Ex 30, 1-(2-(1H-pyrrolo[2,3-b]pyridin-3-yl)ethyl)-1,1-dimethyl imidodicarbonimide diamide trifluoroacetic acid salt], in the experiment on control (Neo) cells, the IC50 is 864 µM. As for `COc1cccc2[nH]cc(CCNC(=N)NC(=N)N)c12` [Ex 14, 1-[2-(4-methoxy-1H-indol-3-yl)ethyl]imidodicarbonimide diamide trifluoroacetic acid salt], in the experiment on control (Neo) cells, the IC50 came out at 1310 µM. On human MATE1, the inhibition at 1000 µM worked out at 39%. As for `CN(C)C(=N)NC(=N)NCCc1c[nH]c2ccc(Cl)cc12` [Ex 53, 3-(2-(5-chloro-1H-indol-3-yl)ethyl)-1,1-dimethyl imidodicarbonimide diamide trifluoroacetic acid salt], the figures for the IC50 with control (Neo) cells and against human MATE1 were 422 µM and 398 µM, respectively.

Consider `N=C(N)NC(=N)NCCc1c[nH]c2ncccc12` [Ex 20, 1-(2-(1H-pyrrolo[2,3-b]pyridin-3-yl)ethyl)imidodicarbonimide diamide hydrochloride], for which the IC50 with control (Neo) cells amounted to 605 µM. In the case of `CN(C)C(=N)NC(=N)NCCc1c[nH]c2ccc(F)cc12` [Ex 24, 3-(2-(5-fluoro-1H-indol-3-yl)ethyl)-1,1-dimethyl imidodicarbonimide diamide hydrochloride], the figures for the IC50 in the experiment on control (Neo) cells and against human MATE1 were 1590 µM and more than 10000 µM, respectively.

With `N=C(N)NC(=N)NCCc1c[nH]c2cc(F)cc(F)c12` [Ex 61, 1-[2-(4,6-difluoro-1H-indol-3-yl)ethyl]imidodicarbonimide diamide, trifluoroacetic acid salt], the figures for the IC50 in the experiment on control (Neo) cells and on human MATE1 were 333 µM and 62 µM, respectively.

As to `N=C(N)NC(=N)NCCc1c[nH]c2cc(F)c(F)c(F)c12` [Ex 50, 1-[2-(4,5,6-trifluoro-1H-indol-3-yl)ethyl]imidodicarbonimide diamide, trifluoroacetic acid salt], the values for the concentration for half-maximal inhibition (IC50) in the experiment on control (Neo) cells and against human MATE1 were 181 µM and 102 µM, respectively. For `CN(C)C(=N)NC(=N)NCCc1c[nH]c2nc(F)ccc12` [Ex. 54, 3-(2-(6-fluoro-1H-pyrrolo[2,3-b]pyridin-3-yl)ethyl)-1,1-dimethyl imidodicarbonimide diamide trifluoroacetic acid salt], in that order: 4600 µM and 4950 µM. `N=C(N)NC(=N)NCCc1c[nH]c2c(F)cc(F)cc12` [Ex 27, 1-[2-(5,7-difluoro-1H-indol-3-yl)ethyl]imidodicarbonimide diamide, trifluoroacetic acid salt]: the IC50 in the experiment with control (Neo) cells was determined as 291 µM. Still for that read-out and setting: the same measure for `Cc1[nH]c2ccc(F)cc2c1CCNC(=N)NC(=N)N` [Ex 29, 1-[2-(5-fluoro-2-methyl-1H-indol-3-yl)ethyl]imidodicarbonimide diamide, trifluoroacetic acid salt]: more than 100 µM.

As usually defined, the IC50 is the concentration at which inhibition is half-maximal.

The record behind these values is US12371404B2, “Fused bicyclic alkylene linked imidodicarbonimidic diamides, methods for synthesis, and uses in therapy” (NovaTarg, Inc., priority 2016, dated 2025).
